Our source for the T/C values is PubChem BioAssay AID258 (DTP/NCI, 2004).

Where “and” joins values, the source holds several entries; their conditions need not be identical. Equal entries are not always repeated. Toxic doses and inconclusive results are not listed.

This test relates to CD2F1 mice, L1210 leukemia sc, survival T/C. Kind of test: NCI In Vivo Anticancer Drug Screen. Data for tumor model L1210 Leukemia (subcutaneous) in CD2F1 (CDF1) mice. Particulars: endpoint: median survival time, higher = longer survival. An outline of the steps:
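Antitumor activity is scored in tumor-bearing mice by comparing survival or tumor size of treated animals against vehicle-treated controls, reported as T/C.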

Turning to `S=c1nc[nH]c2nc[nH]c12`, the T/C is 113 % of control (dose: 5.0 mg/kg/injection, schedule: Q01DX009 (sc), vehicle: saline with Tween-80); 111 % of control (dose: 5.0 mg/kg/injection, schedule: Q## X Z (sc), vehicle: other); 100 % of control (dose: 8.4 mg/kg/injection, schedule: Q01DX Z (sc), vehicle: methylcellulose (MC)); 100 % of control (dose: 14.0 mg/kg/injection, schedule: Q01DX Z (ip), vehicle: other); 100 % of control (dose: 14.0 mg/kg/injection, schedule: Q01DX Z (sc), vehicle: methylcellulose (MC)); 100 % of control (dose: 14.0 mg/kg/injection, schedule: Q01DX Z (sc), vehicle: other). In addition, the T/C is, setting by setting: (dose: 14.0 mg/kg/injection, schedule: Q## X Z (sc), vehicle: other) 172 % of control; (dose: 14.0 mg/kg/injection, schedule: Q#A X Z (sc), vehicle: other) 111 % of control; (dose: 20.0 mg/kg/injection, schedule: Q01DX009 (sc), vehicle: saline with Tween-80) 167 % of control; (dose: 23.0 mg/kg/injection, schedule: Q01DX Z (ip), vehicle: other) 100 % of control; (dose: 23.0 mg/kg/injection, schedule: Q01DX Z (oral), vehicle: other) 110 % of control; (dose: 23.0 mg/kg/injection, schedule: Q01DX Z (sc), vehicle: methylcellulose (MC)) 109 % of control and 110 % of control. Also, the T/C is, setting by setting: (dose: 23.0 mg/kg/injection, schedule: Q02DX Z (sc), vehicle: other) 100 % of control; (dose: 23.0 mg/kg/injection, schedule: Q## X Z (sc), vehicle: other) 161 % of control; (dose: 23.0 mg/kg/injection, schedule: Q#A X Z (sc), vehicle: other) 105 % of control; (dose: 25.0 mg/kg/injection, schedule: Q01DX Z (sc), vehicle: other) 112 % of control; (dose: 39.0 mg/kg/injection, schedule: Q01DX001 (sc), vehicle: other) 100 % of control; (dose: 39.0 mg/kg/injection, schedule: Q01DX Z (ip), vehicle: other) 100 % of control. Also, the T/C (dose: 39.0 mg/kg/injection, schedule: Q01DX Z (oral), vehicle: other) is 110 % of control; the T/C (dose: 39.0 mg/kg/injection, schedule: Q02DX Z (sc), vehicle: other) was 111 % of control; the T/C (dose: 39.0 mg/kg/injection, schedule: Q07DX Z (sc), vehicle: other) was 111 % of control; the T/C (dose: 39.0 mg/kg/injection, schedule: Q#A X Z (sc), vehicle: other) was 166 % of control; the T/C (dose: 40.0 mg/kg/injection, schedule: Q01DX009 (sc), vehicle: saline with Tween-80) is 151 % of control; the T/C (dose: 46.8 mg/kg/injection, schedule: Q01DX Z (sc), vehicle: other) is 122 % of control. In addition, the T/C was 175 % of control (dose: 50.0 mg/kg/injection, schedule: Q01DX Z (sc), vehicle: other); 105 % of control (dose: 65.0 mg/kg/injection, schedule: Q01DX001 (sc), vehicle: other); 165 % of control (dose: 65.0 mg/kg/injection, schedule: Q01DX Z (sc), vehicle: methylcellulose (MC)); 111 % of control (dose: 65.0 mg/kg/injection, schedule: Q02DX Z (sc), vehicle: other); 111 % of control (dose: 65.0 mg/kg/injection, schedule: Q07DX Z (sc), vehicle: other); 111 % of control (dose: 65.0 mg/kg/injection, schedule: Q## X Z (sc), vehicle: other). In addition, the T/C is, setting by setting: (dose: 65.0 mg/kg/injection, schedule: Q#A X Z (sc), vehicle: other) 177 % of control; (dose: 78.0 mg/kg/injection, schedule: Q01DX Z (sc), vehicle: other) 194 % of control; (dose: 80.0 mg/kg/injection, schedule: Q01DX009 (sc), vehicle: saline with Tween-80) 110 % of control; (dose: 100.0 mg/kg/injection, schedule: Q01DX Z (sc), vehicle: other) 162 % of control; (dose: 108.0 mg/kg/injection, schedule: Q01DX001 (sc), vehicle: other) 122 % of control; (dose: 108.0 mg/kg/injection, schedule: Q01DX Z (ip), vehicle: other) 175 % of control. For the same molecule, the T/C is, setting by setting: (dose: 108.0 mg/kg/injection, schedule: Q01DX Z (oral), vehicle: other) 170 % of control; (dose: 108.0 mg/kg/injection, schedule: Q02DX Z (sc), vehicle: other) 200 % of control; (dose: 108.0 mg/kg/injection, schedule: Q07DX Z (sc), vehicle: other) 122 % of control; (dose: 108.0 mg/kg/injection, schedule: Q## X Z (sc), vehicle: other) 111 % of control; (dose: 130.0 mg/kg/injection, schedule: Q01DX Z (sc), vehicle: other) 177 % of control; (dose: 160.0 mg/kg/injection, schedule: Q01DX009 (sc), vehicle: saline with Tween-80) 89 % of control. Further, the T/C reads like this: (dose: 180.0 mg/kg/injection, schedule: Q01DX001 (sc), vehicle: other) 122 % of control; (dose: 180.0 mg/kg/injection, schedule: Q01DX Z (sc), vehicle: methylcellulose (MC)) 118 % of control; (dose: 180.0 mg/kg/injection, schedule: Q02DX Z (sc), vehicle: other) 172 % of control; (dose: 180.0 mg/kg/injection, schedule: Q07DX Z (sc), vehicle: other) 122 % of control; (dose: 180.0 mg/kg/injection, schedule: Q## X Z (sc), vehicle: other) 122 % of control; (dose: 216.0 mg/kg/injection, schedule: Q01DX Z (sc), vehicle: other) 166 % of control. Further, the T/C was 111 % of control (dose: 300.0 mg/kg/injection, schedule: Q01DX001 (sc), vehicle: other) and 150 % of control (dose: 300.0 mg/kg/injection, schedule: Q01DX Z (sc), vehicle: other).
As to `COC1=C(N)C(=O)c2nc(-c3nc(C(=O)O)c(C)c(-c4ccc(OC)c(OC)c4O)c3N)ccc2C1=O`, the T/C was 110 % of control (dose: 0.13 mg/kg/injection, schedule: Q01DX Z (sc), vehicle: water); 110 % of control (dose: 0.22 mg/kg/injection, schedule: Q01DX Z (sc), vehicle: water); 110 % of control (dose: 0.36 mg/kg/injection, schedule: Q01DX Z (sc), vehicle: water); 105 % of control (dose: 0.6 mg/kg/injection, schedule: Q01DX Z (sc), vehicle: water); 110 % of control (dose: 1.0 mg/kg/injection, schedule: Q01DX Z (sc), vehicle: water).
For `CC1CN1CCS(=O)(=O)CCN1CC1C` (configuration not stated), the T/C was 100 % of control (dose: 0.17 mg/kg/injection, schedule: Q01DX Z (sc), vehicle: other); 100 % of control (dose: 2.16 mg/kg/injection, schedule: Q01DX Z (sc), vehicle: other); 122 % of control (dose: 3.6 mg/kg/injection, schedule: Q01DX Z (sc), vehicle: other); 122 % of control (dose: 6.0 mg/kg/injection, schedule: Q01DX Z (sc), vehicle: other).
On to `Nc1c(/C=C/c2cc3cc(C4=NCCN4)ccc3o2)[nH]c2cc(C3=NCCN3)ccc12`, for which the T/C was 100 % of control (dose: 3.12 mg/kg/injection, schedule: Q01DX009 (ip), vehicle: Klucel (hydroxypropylcellulose) (HPC)); 100 % of control (dose: 6.25 mg/kg/injection, schedule: Q01DX009 (ip), vehicle: Klucel (hydroxypropylcellulose) (HPC)); 96 % of control (dose: 12.5 mg/kg/injection, schedule: Q01DX009 (ip), vehicle: Klucel (hydroxypropylcellulose) (HPC)); 106 % of control (dose: 25.0 mg/kg/injection, schedule: Q01DX009 (ip), vehicle: Klucel (hydroxypropylcellulose) (HPC)).
On to `CNNCc1ccc(C(=O)NC(N)=O)cc1`, for which the T/C (dose: 50.0 mg/kg/injection, schedule: Q01DX Z (sc), vehicle: saline) was 94 % of control; the T/C (dose: 100.0 mg/kg/injection, schedule: Q01DX Z (sc), vehicle: saline) was 105 % of control; the T/C (dose: 200.0 mg/kg/injection, schedule: Q01DX Z (sc), vehicle: saline) was 105 % of control; the T/C (dose: 400.0 mg/kg/injection, schedule: Q01DX Z (sc), vehicle: saline) was 94 % of control.
